Test system: 5-lipoxygenase-activating protein (FLAP)
Test: cells
Design: species or system human neutrophils; Inhibition of 5-LO product formation (LTB4, its trans isomers, 5-H(p)ETE) in A23187-stimulated human neutrophils, FLAP-dependent assay
Conditions: Neutrophil; 2.5 uM A23187

Row | IC50 [nM] | Compound
1 | 1920 ± 580 | COc1ccc(-n2c(SCc3nc4ccccc4s3)nnc2-c2ccc(C#N)cc2)cc1 [6s]
2 | 1580 ± 590 | COc1cccc(-n2c(SCc3nc4ccccc4s3)nnc2-c2cccs2)c1 [6c]
3 | 1930 ± 370 | N#Cc1ccc(-c2nnc(SCc3nc4ccccc4s3)n2-c2ccccc2)cc1 [6z]
4 | 1360 ± 270 | Clc1ccc(-n2c(SCc3nc4ccccc4s3)nnc2-c2cccs2)cc1 [6d]
5 | 1420 ± 310 | COc1ccc(-n2c(SCc3ccc(C(F)(F)F)o3)nnc2-c2cccs2)cc1 [6l]
6 | 1280 ± 190 | COc1ccc(-n2c(SCc3nc4ccccc4s3)nnc2-c2ccccc2)cc1 [6q]
7 | 2180 ± 650 | COc1ccc(-n2c(SCc3nc4ccccc4s3)nnc2-c2cccs2)cc1 [6a]
8 | 4170 ± 270 | COc1cccc(-n2c(SCc3ccc4ccccc4n3)nnc2-c2cccs2)c1 [6k]
9 | 3010 ± 840 | COc1ccc(-n2c(OCc3nc4ccccc4s3)nnc2-c2cccs2)cc1 [6n]
10 | 3690 ± 1020 | COc1ccc(-n2c(SCc3ccc4ccccc4n3)nnc2-c2cccs2)cc1 [6j]
11 | 6340 ± 790 | COc1ccc(-n2c(OCc3ccc4ccccc4n3)nnc2-c2cccs2)cc1 [6o]

Reference: article PMC10468765, “Substituted 1,2,4-Triazoles as Novel and Selective Inhibitors of Leukotriene Biosynthesis Targeting 5-Lipoxygenase-Activating Protein” (ACS Omega, 2023)
